Assay: Effect of dextrose and mannitol concentration on buprenorphine solubility in pectin solution (hplc)
Details: aqueous solution containing 20 mg/ml pectin, across the measured pH range
Method: Solutions containing pectin (Slendid 100) (20 mg/ml) were prepared at pH 3, 4, 5 and 6 (pH adjustments were made with 0.1M HCl or 0.1M meglumine). […] An excess of buprenorphine hydrochloride was then added and the mixture stirred overnight at 18° C. Saturated buprenorphine hydrochloride solutions were produced by passing each mixture through a 0.2 μm polycarbonate membrane filter. The concentration of buprenorphine hydrochloride in the filtrate was determined by hplc.

CO[C@]12CCC3(C[C@@H]1[C@@](C)(O)C(C)(C)C)[C@H]1Cc4ccc(O)c5c4[C@@]3(CCN1CC1CC1)C2O5 (stereo partly shown) [Buprenorphine]
Effect of dextrose or mannitol concentration on buprenorphine solubility: not affected significantly

Reference: patent publication US7666876B2, “Buprenorphine formulations for intranasal delivery” (Vernalis (R&D) Limited, priority 2002, dated 2010)
